Literature values as cited in patent US20120114757A1, “PARTICLES COMPRISING DROSPIRENONE ENCAPSULATED IN A POLYMER” (BAYER PHARMA AKTIENGESELLSCHAFT, priority 2009, published 2012).

## C[C@]12CCC(=O)C=C1[C@@H]1C[C@@H]1[C@H]1[C@@H]3[C@@H]4C[C@@H]4[C@@]4(CCC(=O)O4)[C@@]3(C)CC[C@@H]12 [Drospirenone, 6β,7β;15β,16β-dimethylene-3-oxo-17α-pregn-4-ene-21,17-carbolactone]
Acid conditions
  stability under acid conditions: rearranged to an inactive isomer
Various pH values
  solubility in water and aqueous buffers: sparingly soluble
